US20220296680A1, “TREATMENT AND PREVENTION OF CARDIORENAL DAMAGE” (Oslo Universitetssykehus HF, priority 2021, published 2022)

Tests used:
[1] = system: neprilysin and other endopeptidases; conditions: cited from earlier work
[2] = system: patients with congestive heart failure; conditions: Delacroix et al. 2016; cited from earlier work
ZSF1-Ob rats = assay: Interventional study in pre-HFpEF ZSF1-Ob rats (obesity, diabetes, hypertension, diastolic dysfunction); type: in vivo, rat
Method: A hybrid rat that was a cross between a ZDF female and an SHHF male was utilized.
Briefly, we performed an interventional study in pre-HFpEF rats (15 weeks old) affected by obesity, diabetes, hypertension, diastolic dysfunction, and administered either vehicle, VASTIRAS™ (proANP31-67; VAS; 50 ng/Kg/day administered subcutaneously via Alzet osmotic pump), ENTRESTO™ (ENT; 68 mg/Kg/day administered orally via gavage), or VAS+ENT (VAS/ENT).

[3] = in vivo; cited from earlier work
[4] = system: ischemia-induced acute tubular necrosis and renal failure; conditions: Recombinant proANP31-67; Clark et al. 2000; cited from earlier work
[5] = system: prostaglandin E2 (PGE2) formation in the kidney; conditions: Chiou & Vesely 1995; cited from earlier work
[6] = ZSF1-Ob rats, autopsy, VAS 50 ng/Kg/day sc, ENT 68 mg/Kg/day oral, FIGS. 3-4
[7] = ZSF1-Ob rats, cardiac ultrasound

Substance: proANP31-67 (EVVPPQVLSEPNEEAGAALSPLPEVPPWTGEVSPAQR) [VAS, recombinant form of a human hormone]
- degradation by neprilysin and other endopeptidases [1]: resistant
- treatment for renal impairment in patients with congestive heart failure [2]: safe and effective
- Elevated blood pressure (ZSF1-Ob rats; ZSF1-Ob rats treated from 15 weeks old, assessed at 25 weeks-old, VAS 50 ng/Kg/day sc, ENT 68 mg/Kg/day oral gavage, FIGS. 5-6): not affected
- atria weight (AW)/TL (ZSF1-Ob rats; [6]): tended to decrease
- body weight (BW) (ZSF1-Ob rats; [6]): tended to decrease
- heart weight (HW)/tibia length (TL) (ZSF1-Ob rats; [6]): tended to decrease
- kidney weight (KW)/TL (ZSF1-Ob rats; [6]): tended to decrease
- cardiac output (ZSF1-Ob rats; [7]): improved
- global longitudinal strain (GLS) (ZSF1-Ob rats; [7]): tended to increase
- renal vascularity (ZSF1-Ob rats; ZSF1-Ob rats, renal ultrasound, FIGS. 7-13): preserved
- excretion in urine [3]: excreted largely intact
- ischemia-induced acute tubular necrosis and renal failure [4]: protect
- prostaglandin E2 (PGE2) formation in the kidney [5]: stimulate
